Measured values taken from ChEMBL document CHEMBL3297662, “Synthesis and identification of cytotoxic diphyllin glycosides as vacuolar H(+)-ATPase inhibitors” (Eur J Med Chem, 2014).
Activity calls are given as the source filed them. The calls are words filed in the database; no cut-off is given here.

What was measured:
MCF7 = assay: Cytotoxicity against human MCF7 cells assessed as growth inhibition after 72 hrs by MTT assay; assay type: functional, cell-based; settings: MCF7, 72 h
HepG2 [1] = assay: Cytotoxicity against human HepG2 cells assessed as growth inhibition after 72 hrs by MTT assay; assay type: functional, cell-based; settings: HepG2, 72 h
HeLa = assay: Cytotoxicity against human HeLa cells assessed as growth inhibition after 72 hrs by MTT assay; assay type: functional, cell-based
U-251 = assay: Cytotoxicity against human U251 cells assessed as growth inhibition after 72 hrs by MTT assay; assay type: functional, cell-based; settings: U-251, 72 h
HCT-116 = assay: Cytotoxicity against human HCT116 cells assessed as growth inhibition after 72 hrs by MTT assay; assay type: functional, cell-based; settings: HCT-116, 72 h
HepG2 [2] = assay: Inhibition of vacuolar H+-ATPase in human HepG2 cells assessed as neutralization of lysosomal pH at 10 to 100 nM after 48 hrs by LysoTracker Red dye-based confocal microscopic analysis; assay type: cell-based
HepG2 [3] = assay: Inhibition of vacuolar H+-ATPase in human HepG2 cells assessed as release of phosphate after 72 hrs by malachite green dye-based spectrophotometric analysis; assay type: cell-based

| Structure (SMILES) | IC50 (MCF7) [nM] | IC50 (HepG2 [1]) [nM] | IC50 (HeLa) [nM] | IC50 (U-251) [nM] | IC50 (HCT-116) [nM] | inhibition (HepG2 [2]) | inhibition (HepG2 [3]) |
| --- | --- | --- | --- | --- | --- | --- | --- |
| CC(=O)O[C@H]1C(=O)[C@@]2(C)[C@H]([C@H](OC(=O)c3ccccc3)[C@]3(O)C[C@H](OC(=O)[C@H](O)[C@@H](NC(=O)c4ccccc4)c4ccccc4)C(C)=C1C3(C)C)[C@]1(OC(C)=O)CO[C@@H]1C[C@@H]2O [PACLITAXEL] | 45 | 84 | 96 | 128 | 69 | – | – |
| COc1cc2c(O[C@@H]3OC[C@@H](OC)[C@H](OC)[C@H]3O[C@@H]3O[C@H](CO)[C@@H](O)[C@H](O)[C@H]3O)c3c(c(-c4ccc5c(c4)OCO5)c2cc1OC)C(=O)OC3 | > 200 | > 200 | > 200 | > 200 | > 200 | – | – |
| COc1cc2c(O[C@@H]3OC[C@@H](OC)[C@H](OC)[C@H]3O)c3c(c(-c4ccc5c(c4)OCO5)c2cc1OC)C(=O)OC3 [CLEISTANTHIN] | 190 | 36 | 67 | 97 | 31 | Active | Dose-dependent effect |
| COc1cc2c(O[C@@H]3OC[C@@H](OC)[C@H](OC)[C@H]3O[C@@H]3O[C@H](COC(C)=O)[C@@H](OC(C)=O)[C@H](OC(C)=O)[C@H]3OC(C)=O)c3c(c(-c4ccc5c(c4)OCO5)c2cc1OC)C(=O)OC3 | 92 | 39 | 74 | 101 | 82 | Active | Dose-dependent effect |
